# Measured values: ChEMBL document CHEMBL1201862, “PubChem BioAssay data set” (2004)
#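 Following 48 hours of exposure in 96-well plates, responses at five concentrations were used to interpolate endpoints linearly. The concentration for 50% growth inhibition is given as GI50.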 Calls of active or inactive are those of the source. Cut-off read from the data, not from the text of the source: active = GI50 up to about 1.1 µM and inactive = higher.
# Experiments:
# Experiment in all cases: NCI-60 cell line screen, 48 h
# ACHN = tested on: ACHN
# CAKI-1 = tested on: CAKI-1
# CCRF-CEM = tested on: CCRF-CEM
# HCC 2998 = tested on: HCC 2998
# HL-60 = tested on: HL-60
# HOP-62 = tested on: HOP-62
# Hs-578T = tested on: Hs-578T
# K562 = tested on: K562
# MDA-MB-435 = tested on: MDA-MB-435
# MDA-N = tested on: MDA-N
# NCI-H460 = tested on: NCI-H460
# NCI/ADR-RES = tested on: NCI/ADR-RES
# OVCAR-8 = tested on: OVCAR-8
# RPMI-8226 = tested on: RPMI-8226
# SF-295 = tested on: SF-295
# SK-OV-3 = tested on: SK-OV-3
# SNB-19 = tested on: SNB-19
# SR = tested on: SR
# TK-10 = tested on: TK-10
# UACC-62 = tested on: UACC-62
Compound,GI50 (ACHN),GI50 (CAKI-1),GI50 (CCRF-CEM),GI50 (HCC 2998),GI50 (HL-60),GI50 (HOP-62),GI50 (Hs-578T),GI50 (K562),GI50 (MDA-MB-435),GI50 (MDA-N),GI50 (NCI-H460),GI50 (NCI/ADR-RES),GI50 (OVCAR-8),GI50 (RPMI-8226),GI50 (SF-295),GI50 (SK-OV-3),GI50 (SNB-19),GI50 (SR),GI50 (TK-10),GI50 (UACC-62)
COc1cc2c(cc1OC)C(=O)N(c1ccc(O)cc1)C2,> 100 µM (inactive),> 100 µM (inactive),> 100 µM (inactive),> 100 µM (inactive),> 100 µM (inactive),> 100 µM (inactive),> 100 µM (inactive),> 100 µM (inactive),> 100 µM (inactive),> 100 µM (inactive),> 100 µM (inactive),> 100 µM (inactive),> 100 µM (inactive),> 100 µM (inactive),> 100 µM (inactive),> 100 µM (inactive),> 100 µM (inactive),> 100 µM (inactive),> 100 µM (inactive),> 100 µM (inactive)
CCOC(=O)c1sc2nc(SC)nc3c2c1NCN3c1ccc2c(c1)OCCCO2,32.1 µM (inactive),> 100 µM (inactive),> 100 µM (inactive),26.3 µM (inactive),> 100 µM (inactive),27.9 µM (inactive),2.57 µM (inactive),> 100 µM (inactive),> 100 µM (inactive),> 100 µM (inactive),25.7 µM (inactive),22.1 µM (inactive),7.46 µM (inactive),> 100 µM (inactive),1.67 µM (inactive),15.7 µM (inactive),8.09 µM (inactive),> 100 µM (inactive),53.6 µM (inactive),> 100 µM (inactive)
NC(CSS(=O)(=O)c1ccccc1)C(=O)O (stereo not given),> 10 µM (inactive),> 10 µM (inactive),> 10 µM (inactive),> 10 µM (inactive),> 10 µM (inactive),> 10 µM (inactive),> 10 µM (inactive),> 10 µM (inactive),> 10 µM (inactive),> 10 µM (inactive),> 10 µM (inactive),> 10 µM (inactive),> 10 µM (inactive),> 10 µM (inactive),> 10 µM (inactive),> 10 µM (inactive),> 10 µM (inactive),> 10 µM (inactive),> 10 µM (inactive),> 10 µM (inactive)
COc1ccc2c(c1)CCc1cc(C(N)=O)c3nnnn3c1-2,30.5 µM (inactive),36.7 µM (inactive),> 50.1 µM (inactive),39.8 µM (inactive),> 100 µM (inactive),25.5 µM (inactive),0.408 µM (active),> 96.6 µM (inactive),> 100 µM (inactive),> 100 µM (inactive),12.2 µM (inactive),> 84.5 µM (inactive),> 52.7 µM (inactive),> 100 µM (inactive),44.1 µM (inactive),54.3 µM (inactive),64.7 µM (inactive),> 100 µM (inactive),8.13 µM (inactive),1.67 µM (inactive)
C/C(=N\O)c1cccc(Nc2nc3ccccc3c3occc23)c1,10.3 µM (inactive),10.7 µM (inactive),8.02 µM (inactive),14.6 µM (inactive),20.9 µM (inactive),18.3 µM (inactive),12.1 µM (inactive),7.85 µM (inactive),10.1 µM (inactive),13.1 µM (inactive),4.35 µM (inactive),13.1 µM (inactive),16.6 µM (inactive),7.06 µM (inactive),8.83 µM (inactive),15 µM (inactive),16.9 µM (inactive),5.81 µM (inactive),13 µM (inactive),< 0.01 µM (active)
Cc1nc(Nc2ccc(Cl)c(Cl)c2)sc1C(/C=C/c1ccc2c(c1)OCO2)=N/Nc1ccc([N+](=O)[O-])cc1[N+](=O)[O-],> 92 µM (inactive),> 46.5 µM (inactive),80.9 µM (inactive),> 78.5 µM (inactive),> 79.6 µM (inactive),59.8 µM (inactive),> 74.5 µM (inactive),> 80.4 µM (inactive),> 100 µM (inactive),> 100 µM (inactive),> 100 µM (inactive),> 100 µM (inactive),> 100 µM (inactive),> 82.2 µM (inactive),53.3 µM (inactive),> 91.8 µM (inactive),48.1 µM (inactive),> 91.4 µM (inactive),66.5 µM (inactive),> 61.9 µM (inactive)
